Counter-ions that a name gives are not always drawn. Like-named read-outs stand apart in the source and are kept apart here.
Columns and labels:
[1] = tested on: Breast Cancer Cell Line MCF7; experiment: in vitro test on cell line MCF7; type: cell-based; conditions: Homo sapiens, MCF7, read-out: Actual −Log(GI50) (converted)
Method: (§1) The COTI-001 compound was tested in vitro on a variety of cell lines comparing its effect to a known protein tyrosine kinase inhibitor used in the treatment of certain cancers.

Leukemia Cell Line K562 = experiment: in vitro test on cell line K562; type: cell-based; conditions: Homo sapiens
Method: as §1

mice [2] = experiment: in vivo toxicity study in mice
Method: (§2) Five groups of mice (3 mice per group) were administered a 50 mg/kg dosage of Formula II.

Leukemia Cell Line P388 = experiment: in vitro test on cell line P388; type: cell-based, murine; conditions: Mus musculus
Method: as §1

mice [3] = conditions: mouse, in vivo, 50 mg/kg
Method: as §2

## CC1CN=C(c2ccc(NC(=O)c3ccc(C(=O)Nc4ccc(C5=NCC(C)CN5)cc4)nc3)cc2)NC1 (centres unmarked) [Formula II, N,N′-Bis[4-(1,4,5,6-tetrahydro-5-methyl-2-pyrimidinyl)phenyl]-2,5-pyridinedicarboxamide dihydrochloride]
[1]
  GI50: 20000 nM
Leukemia Cell Line K562; K562, read-out: Actual −Log(GI50) (converted)
  GI50: 20000 nM
Mice [2]
  tolerated dosage: ≤ 25 mg/kg
Mice [2]; 50 mg/kg dosage
  tolerability of dosage: not tolerated
Leukemia Cell Line P388; P388, read-out: Actual −Log(GI50) (converted)
  GI50: 1000 nM

## Cc1ccc(NC(=O)c2ccc(CN3CCN(C)CC3)cc2)cc1Nc1nccc(-c2cccnc2)n1 [Gleevec ™, reference compound]
Mice [3]
  tolerability of dosage: able to tolerate this dosage amount
Leukemia Cell Line K562; Leukemia Cell Line K562, in vitro result, read-out: Actual −Log(GI50) (converted)
  GI50: 1000 nM
Leukemia Cell Line P388; Leukemia Cell Line P388, in vitro result, read-out: Actual −Log(GI50) (converted)
  GI50: 2000 nM

Reference: patent US7629347B2, “Protein tyrosine kinase inhibitors” (Critical Outcome Technologies, Inc., priority 2002, dated 2009)
